Data taken from the kinase profiling compilation of Christmann-Franck et al. (2016).

Legend:
Assay in all cases: KINOMEscan competition binding
Settings in all cases: compound 1.0 µM
MAPK11 (human) = MAPK11 (human) (UniProt Q15759)
PRKCH (human) = PRKCH (human) (UniProt P24723)
RPS6KA2 KD2 (human) = RPS6KA2 KD2 (human) (UniProt Q15349)
NEK5 (human) = NEK5 (human) (UniProt Q6P3R8)
[1] = system: EGFR (human), P00533 [L858R]
RPS6KA2 KD1 (human) = RPS6KA2 KD1 (human) (UniProt Q15349)
[2] = system: FLT3 (human), P36888 [D835H]
RIOK1 (human) = RIOK1 (human) (UniProt Q9BRS2)
PLK3 (human) = PLK3 (human) (UniProt Q9H4B4)
Chain of PLK3 (human) (Q9H4B4 whole entry, looked up): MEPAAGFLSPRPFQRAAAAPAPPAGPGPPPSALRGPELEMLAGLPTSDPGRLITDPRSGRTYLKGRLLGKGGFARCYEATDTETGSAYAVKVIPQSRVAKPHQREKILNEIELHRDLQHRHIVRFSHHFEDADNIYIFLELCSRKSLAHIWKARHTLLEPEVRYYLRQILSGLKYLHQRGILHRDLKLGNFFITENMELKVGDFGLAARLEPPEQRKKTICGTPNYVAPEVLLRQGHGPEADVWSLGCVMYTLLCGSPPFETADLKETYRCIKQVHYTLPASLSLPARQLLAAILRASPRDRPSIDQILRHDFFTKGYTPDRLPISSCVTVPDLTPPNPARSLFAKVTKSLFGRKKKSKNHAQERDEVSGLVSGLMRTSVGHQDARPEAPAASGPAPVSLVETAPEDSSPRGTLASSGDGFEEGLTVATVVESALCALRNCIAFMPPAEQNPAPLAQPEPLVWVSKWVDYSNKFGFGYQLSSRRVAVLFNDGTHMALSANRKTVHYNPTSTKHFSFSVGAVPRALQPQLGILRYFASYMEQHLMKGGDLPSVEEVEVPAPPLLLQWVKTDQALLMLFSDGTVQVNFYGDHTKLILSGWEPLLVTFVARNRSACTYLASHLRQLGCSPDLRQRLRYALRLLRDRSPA

GRK7 (human) = GRK7 (human) (UniProt Q8WTQ7)
Chain of GRK7 (human) (Q8WTQ7 whole entry, looked up): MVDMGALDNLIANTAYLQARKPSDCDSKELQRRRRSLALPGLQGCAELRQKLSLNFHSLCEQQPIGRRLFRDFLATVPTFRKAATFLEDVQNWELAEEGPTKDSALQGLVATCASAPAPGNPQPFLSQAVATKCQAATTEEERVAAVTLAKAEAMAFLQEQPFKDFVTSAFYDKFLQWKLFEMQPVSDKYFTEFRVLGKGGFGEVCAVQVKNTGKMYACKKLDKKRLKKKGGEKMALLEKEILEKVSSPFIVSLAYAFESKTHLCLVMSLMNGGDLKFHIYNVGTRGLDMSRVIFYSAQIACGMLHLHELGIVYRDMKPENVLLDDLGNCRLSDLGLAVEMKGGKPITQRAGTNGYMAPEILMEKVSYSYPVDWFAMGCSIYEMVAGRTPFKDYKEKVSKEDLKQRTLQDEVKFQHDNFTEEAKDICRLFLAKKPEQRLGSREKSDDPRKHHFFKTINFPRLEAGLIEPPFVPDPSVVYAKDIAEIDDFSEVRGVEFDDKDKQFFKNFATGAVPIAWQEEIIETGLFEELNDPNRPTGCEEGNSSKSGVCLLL

[3] = system: EGFR (human), P00533 [752-759 del]
HUNK (human) = HUNK (human) (UniProt P57058)
PKMYT1 (human) = PKMYT1 (human) (UniProt Q99640)
ROCK1 (human) = ROCK1 (human) (UniProt Q13464)
RET (human) = RET (human) (UniProt P07949)
CDK8 (human) = CDK8 (human) (UniProt P49336)
Chain of CDK8 (human) (P49336 whole entry, looked up): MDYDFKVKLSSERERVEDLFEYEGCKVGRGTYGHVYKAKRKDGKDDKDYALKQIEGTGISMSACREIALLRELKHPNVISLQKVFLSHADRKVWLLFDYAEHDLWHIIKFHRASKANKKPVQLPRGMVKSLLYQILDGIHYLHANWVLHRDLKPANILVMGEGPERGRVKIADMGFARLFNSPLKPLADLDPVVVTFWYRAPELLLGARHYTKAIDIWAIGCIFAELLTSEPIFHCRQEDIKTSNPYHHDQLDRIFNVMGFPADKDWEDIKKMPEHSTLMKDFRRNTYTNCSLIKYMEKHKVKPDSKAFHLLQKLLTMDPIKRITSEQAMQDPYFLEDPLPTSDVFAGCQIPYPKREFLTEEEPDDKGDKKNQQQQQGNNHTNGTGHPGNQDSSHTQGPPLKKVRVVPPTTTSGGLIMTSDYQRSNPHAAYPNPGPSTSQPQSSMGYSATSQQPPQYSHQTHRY

TIE1 (human) = TIE1 (human) (UniProt P35590)
RPS6KA1 KD1 (human) = RPS6KA1 KD1 (human) (UniProt Q15418)
IRAK1 (human) = IRAK1 (human) (UniProt P51617)
CDK18 (human) = CDK18 (human) (UniProt Q07002)
PRKX (human) = PRKX (human) (UniProt P51817)
HIPK1 (human) = HIPK1 (human) (UniProt Q86Z02)
TNK2 (human) = TNK2 (human) (UniProt Q07912)
FER (human) = FER (human) (UniProt P16591)
AURKC (human) = AURKC (human) (UniProt Q9UQB9)
MKNK2 (human) = MKNK2 (human) (UniProt Q9HBH9)
Chain of MKNK2 (human) (Q9HBH9 whole entry, looked up): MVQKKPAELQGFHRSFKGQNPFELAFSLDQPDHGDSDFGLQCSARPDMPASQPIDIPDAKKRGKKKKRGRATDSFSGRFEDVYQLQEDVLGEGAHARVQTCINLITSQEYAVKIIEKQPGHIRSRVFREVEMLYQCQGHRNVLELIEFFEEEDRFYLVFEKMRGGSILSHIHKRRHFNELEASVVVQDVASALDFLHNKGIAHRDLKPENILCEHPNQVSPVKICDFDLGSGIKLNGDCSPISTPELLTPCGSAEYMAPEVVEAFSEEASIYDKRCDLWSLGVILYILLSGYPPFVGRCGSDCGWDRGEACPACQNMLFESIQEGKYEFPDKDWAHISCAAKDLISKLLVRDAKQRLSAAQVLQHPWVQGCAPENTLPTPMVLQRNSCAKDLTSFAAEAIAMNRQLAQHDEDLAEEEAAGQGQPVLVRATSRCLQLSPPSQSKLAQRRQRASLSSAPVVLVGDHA

MAP3K10 (human) = MAP3K10 (human) (UniProt Q02779)
RIOK2 (human) = RIOK2 (human) (UniProt Q9BVS4)
MARK3 (human) = MARK3 (human) (UniProt P27448)
Chain of MARK3 (human) (P27448 whole entry, looked up): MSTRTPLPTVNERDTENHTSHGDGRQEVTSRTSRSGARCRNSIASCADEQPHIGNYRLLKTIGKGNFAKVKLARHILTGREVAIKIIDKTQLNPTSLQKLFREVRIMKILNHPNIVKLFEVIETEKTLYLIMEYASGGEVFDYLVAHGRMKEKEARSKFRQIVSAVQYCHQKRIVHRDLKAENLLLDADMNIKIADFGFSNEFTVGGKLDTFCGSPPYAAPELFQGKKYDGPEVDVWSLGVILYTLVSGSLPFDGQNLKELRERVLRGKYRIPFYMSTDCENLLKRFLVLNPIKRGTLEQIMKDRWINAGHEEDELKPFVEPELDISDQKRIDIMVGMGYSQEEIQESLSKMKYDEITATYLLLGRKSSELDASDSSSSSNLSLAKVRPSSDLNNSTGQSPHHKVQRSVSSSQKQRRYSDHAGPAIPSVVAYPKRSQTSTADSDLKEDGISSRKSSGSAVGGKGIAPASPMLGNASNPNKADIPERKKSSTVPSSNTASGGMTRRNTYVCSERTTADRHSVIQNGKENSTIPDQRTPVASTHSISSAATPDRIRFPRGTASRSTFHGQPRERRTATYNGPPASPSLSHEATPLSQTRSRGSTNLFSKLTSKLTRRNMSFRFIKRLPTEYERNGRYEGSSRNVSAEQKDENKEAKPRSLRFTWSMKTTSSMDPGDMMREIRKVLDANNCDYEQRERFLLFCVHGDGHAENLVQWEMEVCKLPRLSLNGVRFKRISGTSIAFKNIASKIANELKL

EIF2AK2 (human) = EIF2AK2 (human) (UniProt P19525)
Chain of EIF2AK2 (human) (P19525 whole entry, looked up): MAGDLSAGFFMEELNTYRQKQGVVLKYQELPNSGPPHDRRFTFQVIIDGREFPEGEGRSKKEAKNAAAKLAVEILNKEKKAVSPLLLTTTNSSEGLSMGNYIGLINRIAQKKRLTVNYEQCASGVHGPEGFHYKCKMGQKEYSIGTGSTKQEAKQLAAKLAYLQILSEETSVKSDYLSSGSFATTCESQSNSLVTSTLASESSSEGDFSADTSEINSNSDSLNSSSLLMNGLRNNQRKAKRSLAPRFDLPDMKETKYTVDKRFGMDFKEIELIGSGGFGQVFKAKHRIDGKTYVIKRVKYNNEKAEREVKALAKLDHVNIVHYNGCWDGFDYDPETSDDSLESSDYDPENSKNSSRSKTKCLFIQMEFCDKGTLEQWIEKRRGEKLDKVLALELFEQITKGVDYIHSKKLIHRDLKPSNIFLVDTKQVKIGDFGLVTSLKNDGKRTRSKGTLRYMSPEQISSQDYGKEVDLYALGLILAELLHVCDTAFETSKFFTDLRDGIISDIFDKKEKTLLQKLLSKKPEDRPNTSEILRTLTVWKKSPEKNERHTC

DAPK3 (human) = DAPK3 (human) (UniProt O43293)
Chain of DAPK3 (human) (O43293 whole entry, looked up): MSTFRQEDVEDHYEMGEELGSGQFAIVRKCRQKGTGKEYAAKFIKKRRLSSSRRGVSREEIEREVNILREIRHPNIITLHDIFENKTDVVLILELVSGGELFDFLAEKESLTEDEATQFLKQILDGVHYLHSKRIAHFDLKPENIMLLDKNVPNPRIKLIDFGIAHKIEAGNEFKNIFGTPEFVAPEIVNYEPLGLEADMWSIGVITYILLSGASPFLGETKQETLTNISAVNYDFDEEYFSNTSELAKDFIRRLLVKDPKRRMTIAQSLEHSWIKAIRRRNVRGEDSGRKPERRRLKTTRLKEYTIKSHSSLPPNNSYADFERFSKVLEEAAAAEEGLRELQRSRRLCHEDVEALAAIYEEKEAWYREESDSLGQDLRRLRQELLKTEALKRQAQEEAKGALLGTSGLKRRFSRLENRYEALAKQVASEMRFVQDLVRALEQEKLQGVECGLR

CSNK1G3 (human) = CSNK1G3 (human) (UniProt Q9Y6M4)
PDGFRA (human) = PDGFRA (human) (UniProt P16234)
PRKG2 (human) = PRKG2 (human) (UniProt Q13237)
[4] = system: ABL1 (human), P00519 [E255K]
CDK16 (human) = CDK16 (human) (UniProt Q00536)
Chain of CDK16 (human) (Q00536 whole entry, looked up): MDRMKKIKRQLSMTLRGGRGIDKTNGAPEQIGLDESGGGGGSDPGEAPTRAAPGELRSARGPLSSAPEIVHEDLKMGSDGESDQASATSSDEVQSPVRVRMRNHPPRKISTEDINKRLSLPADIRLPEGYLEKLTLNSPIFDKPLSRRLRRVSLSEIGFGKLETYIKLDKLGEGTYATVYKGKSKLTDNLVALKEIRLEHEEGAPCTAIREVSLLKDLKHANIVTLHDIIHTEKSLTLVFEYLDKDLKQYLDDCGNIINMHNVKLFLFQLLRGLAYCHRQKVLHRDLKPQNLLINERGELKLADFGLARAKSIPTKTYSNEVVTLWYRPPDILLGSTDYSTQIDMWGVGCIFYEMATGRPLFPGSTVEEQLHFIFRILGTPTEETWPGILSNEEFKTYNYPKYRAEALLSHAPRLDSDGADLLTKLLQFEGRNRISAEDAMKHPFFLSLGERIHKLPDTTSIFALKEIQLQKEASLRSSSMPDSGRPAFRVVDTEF

PKN1 (human) = PKN1 (human) (UniProt Q16512)
EPHA5 (human) = EPHA5 (human) (UniProt P54756)
[5] = system: KIT (human), P10721 [D816V]
PHKG1 (human) = PHKG1 (human) (UniProt Q16816)
Chain of PHKG1 (human) (Q16816 whole entry, looked up): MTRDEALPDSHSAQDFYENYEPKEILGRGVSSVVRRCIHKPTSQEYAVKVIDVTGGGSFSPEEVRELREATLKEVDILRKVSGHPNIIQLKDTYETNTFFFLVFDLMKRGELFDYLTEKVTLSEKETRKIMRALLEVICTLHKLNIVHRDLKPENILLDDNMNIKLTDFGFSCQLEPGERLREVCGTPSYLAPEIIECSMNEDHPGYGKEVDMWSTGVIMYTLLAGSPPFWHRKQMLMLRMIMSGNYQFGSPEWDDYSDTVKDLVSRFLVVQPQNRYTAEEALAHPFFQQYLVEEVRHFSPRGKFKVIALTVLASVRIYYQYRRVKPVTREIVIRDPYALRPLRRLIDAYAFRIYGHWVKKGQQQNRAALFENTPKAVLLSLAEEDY

Nc1cc(C(F)(F)F)c(-c2cc(N3CCOCC3)nc(N3CCOCC3)n2)cn1
inhibition of binding (MAPK11 (human)): 0%
inhibition of binding (PRKCH (human)): 0%
inhibition of binding (RPS6KA2 KD2 (human)): 16%
inhibition of binding (NEK5 (human)): 0%
inhibition of binding [1]: 16%
inhibition of binding (RPS6KA2 KD1 (human)): 2%
inhibition of binding [2]: 2%
inhibition of binding (RIOK1 (human)): 11%
inhibition of binding (PLK3 (human)): 0%
inhibition of binding (GRK7 (human)): 3%
inhibition of binding [3]: 0%
inhibition of binding (HUNK (human)): 18%
inhibition of binding (PKMYT1 (human)): 0%
inhibition of binding (ROCK1 (human)): 0%
inhibition of binding (RET (human)): 8%
inhibition of binding (CDK8 (human)): 0%
inhibition of binding (TIE1 (human)): 0%
inhibition of binding (RPS6KA1 KD1 (human)): 0%
inhibition of binding (IRAK1 (human)): 12%
inhibition of binding (CDK18 (human)): 34%
inhibition of binding (PRKX (human)): 0%
inhibition of binding (HIPK1 (human)): 0%
inhibition of binding (TNK2 (human)): 0%
inhibition of binding (FER (human)): 0%
inhibition of binding (AURKC (human)): 0%
inhibition of binding (MKNK2 (human)): 5%
inhibition of binding (MAP3K10 (human)): 0%
inhibition of binding (RIOK2 (human)): 0%
inhibition of binding (MARK3 (human)): 0%
inhibition of binding (EIF2AK2 (human)): 19%
inhibition of binding (DAPK3 (human)): 10%
inhibition of binding (CSNK1G3 (human)): 20%
inhibition of binding (PDGFRA (human)): 11%
inhibition of binding (PRKG2 (human)): 0%
inhibition of binding [4]: 0%
inhibition of binding (CDK16 (human)): 0%
inhibition of binding (PKN1 (human)): 0%
inhibition of binding (EPHA5 (human)): 0%
inhibition of binding [5]: 3%
inhibition of binding (PHKG1 (human)): 11%
